The values that follow come from patent EP4678634A1, “ANDROGEN RECEPTOR MODULATORS AND USES THEREOF” (Haihe Biopharma Co., Ltd., priority 2023, dated 2024).

The experiment has as its target T1, Androgen receptor (AR) (Homo sapiens, UniProt P10275).
T1 construct: expressed in transfected cells; host or cells: HEK293T (AR+ARE/Luc)
T1 sequence (P10275 1-920): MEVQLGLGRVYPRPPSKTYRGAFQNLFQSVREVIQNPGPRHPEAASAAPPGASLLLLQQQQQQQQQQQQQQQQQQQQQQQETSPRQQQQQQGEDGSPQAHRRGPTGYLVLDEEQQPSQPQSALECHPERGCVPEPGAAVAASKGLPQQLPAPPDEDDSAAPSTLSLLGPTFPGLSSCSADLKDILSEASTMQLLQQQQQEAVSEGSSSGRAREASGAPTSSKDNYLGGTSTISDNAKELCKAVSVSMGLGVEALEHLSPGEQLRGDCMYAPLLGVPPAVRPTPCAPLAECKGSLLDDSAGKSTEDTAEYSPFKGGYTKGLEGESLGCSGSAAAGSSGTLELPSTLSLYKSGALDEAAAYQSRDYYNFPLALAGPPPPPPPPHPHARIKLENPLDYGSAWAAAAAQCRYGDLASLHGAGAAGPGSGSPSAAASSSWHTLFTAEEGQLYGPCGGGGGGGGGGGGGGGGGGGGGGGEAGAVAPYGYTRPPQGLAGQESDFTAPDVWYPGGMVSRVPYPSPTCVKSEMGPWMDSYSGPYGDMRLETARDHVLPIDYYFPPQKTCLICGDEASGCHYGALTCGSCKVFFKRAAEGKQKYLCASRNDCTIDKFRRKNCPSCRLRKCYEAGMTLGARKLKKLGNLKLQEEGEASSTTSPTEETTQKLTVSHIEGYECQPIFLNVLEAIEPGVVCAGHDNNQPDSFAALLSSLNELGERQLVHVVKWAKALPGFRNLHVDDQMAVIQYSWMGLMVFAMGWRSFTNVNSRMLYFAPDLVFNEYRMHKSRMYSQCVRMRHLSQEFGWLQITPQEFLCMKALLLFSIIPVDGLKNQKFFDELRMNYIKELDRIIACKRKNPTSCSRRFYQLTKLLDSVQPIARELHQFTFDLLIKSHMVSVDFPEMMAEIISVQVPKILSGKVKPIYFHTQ
The experiment in a line: Androgen receptor (AR) reporter gene assay (luciferase). Format: cell-based. The note with it: AR+ARE/Luc HEK293T cells, stimulated with 11-KDHT, 24h incubation, Bright-Lite luminescence; read-out: HEK293 Luc IC50. The procedure:
Androgen receptor (AR) reporter gene assay
Experimental reagents: 11-Ketodihydrotestosterone (11-KDHT) was purchased from MCE (cat.HY-135794); Enzalutamide (MDV3100) was purchased from Selleck (cat.S1250); Bright-Lite Luciferase Assay kit was purchased from Vazyme (cat.DD1204-01);
• 1. dissolve the described compounds in 100% DMSO at a final concentration of 10 mM. 100 nL each of 400X compound to be tested and 400X 11-KDHT (40 nM) were added to a 384-well assay plate with Echo, followed by 20 µL of complete medium, and centrifuged at 1000 rpm for 1 min, and oscillated for 20-30 min at room temperature. • 2. 20 µL of AR+ARE/Luc HEK293T cells (10,000 cells/well) were inoculated into the assay plate containing the compounds and 11-KDHT, and centrifuged at 1000 rpm for 1 min. The assay plate was incubated in a 37 °C CO2 incubator for 24h. • 3. 40 µL of Bright-Lite assay reagent was transferred to each well of the assay plate, centrifuged at 1000 rpm for 1 min, and shaken for 2 min at room temperature protected from light. Luminescence values (RLU) were measured using Envision. Based on the results, the IC50 values of the compounds described were calculated. Table 1 HEK293-Luc% inhibition IC50 of representative compounds
Consider `N#Cc1cc2c(c(Cl)c1OCCCl)CCCC2c1cnc(NCCO)nc1` (stereo not shown) [HANT-248, 4-chloro-3-(2-chloroethoxy)-8-(2-((2-hydroxyethyl)amino)pyrimidin-5-yl)-5,6,7,8-tetrahydrona phthalene-2-carbonitrile], for which the IC50 is 1 to 500 nM.
Turning to `N#Cc1cc2c(c(Cl)c1OCCCl)CCCC2Nc1ccc2[nH]ncc2c1` (stereo not shown) [HANT-225, 8-((1H-indazol-5-yl)amino)-4-chloro-3-(2-chloroethoxy)-5,6,7,8-tetrahydronaphthalene-2-carb onitrile], the IC50 lay in the range of 1 to 500 nM.
The result for `N#Cc1cc2c(c(Cl)c1OCCCl)CCCC2c1cn[nH]c1` (stereo not shown) [HANT-200] reads 500 to 1000 nM; that for `N#Cc1cc2c(c(Cl)c1OCCCl)CCCC2Oc1cccnc1` (stereo not shown) [HANT-267], 1 to 500 nM.
Regarding `N#Cc1cc2c(c(Cl)c1OCCCl)CCCC2Nc1cncnc1` (stereo not shown) [HANT-250], the IC50 lay within 1 to 500 nM.
Next, `N#Cc1cc2c(c(Cl)c1OCCCl)CCCC2c1ccc2c(c1)C(=O)NC2` (stereo not shown) [HANT-948]: 500 to 1000 nM; `N#Cc1cc2c(c(Cl)c1OCCCl)CCCC2c1ccc(O)cc1` (stereo not shown) [HANT-105, 4-chloro-3-(2-chloroethoxy)-8-(4-hydroxyphenyl)-5,6,7,8-tetrahydronaphthalene-2-carbonitrile]: 1 to 500 nM.
Next, `ClCCOc1c(Cl)cc2c(c1Cl)CCCC2N1CCc2[nH]ncc2C1` (stereo not shown) [HANT-125]: 1 to 500 nM; `N#Cc1cc2c(c(Cl)c1OCCCl)CCCC2NC(=O)c1ccc(Cl)cc1` (stereo not shown) [HANT-232]: 1 to 500 nM.
The result for `N#Cc1cc2c(c(Cl)c1OCCCl)CCCC2c1cccc2cn[nH]c12` (stereo not shown) [HANT-194] reads 1 to 500 nM; that for `ClCCOc1c(Cl)cc2c(c1Cl)CCCN2c1ccc2[nH]ncc2c1` [HANT-127, 5,7-dichloro-6-(2-chloroethoxy)-1-(1H-indazol-5-yl)-1,2,3,4-tetrahydroquinoline], 500 to 1000 nM.
Turning to `NCc1cc2c(c(Cl)c1OCCCl)CCCC2c1cnc2[nH]ncc2c1` (stereo not shown) [HANT-184], the IC50 lay in the range of 500 to 1000 nM.
`N#Cc1cc2c(c(Cl)c1OCCCl)CCCC2Nc1ccc2[nH]ncc2n1` (stereo not shown) [HANT-191, 8-((1H-pyrazolo[4,3-b]pyridin-5-yl)amino)-4-chloro-3-(2-chloroethoxy)-5,6,7,8-tetrahydronaph thalene-2-carbonitrile]: the IC50 lay within 1 to 500 nM.
The result for `Oc1ccc(C2CCCc3c2cc(Cl)c(OCCCl)c3Cl)cc1` (stereo not shown) [HANT-336B, 4-(5,7-dichloro-6-(2-chloroethoxy)-1,2,3,4-tetrahydronaphthalen-1-yl)phenol] reads 1 to 500 nM; that for `Oc1ccc(C2CCCc3c2cc(Cl)c(OCCCl)c3Cl)cc1` (stereo not shown) [HANT-336A, 4-(5,7-dichloro-6-(2-chloroethoxy)-1,2,3,4-tetrahydronaphthalen-1-yl)phenol], 500 to 1000 nM; that for `Oc1ccc(C2CCCc3c2cc(Cl)c(OCCCl)c3Cl)c(F)c1` (stereo not shown) [HANT-110, 4-(5,7-dichloro-6-(2-chloroethoxy)-1,2,3,4-tetrahydronaphthalen-1-yl)-3-fluorophenol], 1 to 500 nM.
The result for `Cn1cc2c(n1)CN(C1CCCc3c1cc(C#N)c(OCCCl)c3Cl)C2` (stereo not shown) [HANT-950, 4-Chloro-3-(2-chloroethoxy)-8-(2-methyl-2,6-dihydropyrrolo[3,4-c]pyrazol-5(4H)-yl)-5,6,7,8-t etrahydronaphthalene-2-carbonitrile] reads 1000 to 2000 nM.
Turning to `COc1ccc(C2CCCc3c2cc(C#N)c(OCCCl)c3Cl)cc1` (stereo not shown) [HANT-334], the IC50 lay in the range of 1 to 500 nM.
With `N#Cc1cc2c(c(Cl)c1OCCCl)CCCC2NC(=O)c1cc[nH]n1` (stereo not shown) [HANT-188], the IC50 lay within 500 to 1000 nM.
Next, `COc1cc(O)ccc1C1CCCc2c1cc(Cl)c(OCCCl)c2Cl` (stereo not shown) [HANT-137]: 1000 to 2000 nM; `N#Cc1cc2c(c(Cl)c1OCCCl)CCCC2c1cnc2[nH]c(=O)oc2c1` (stereo not shown) [HANT-207, 4-chloro-3-(2-chloroethoxy)-8-(2-oxo-2,3-dihydrooxazolo[4,5-b]pyridin-6-yl)-5,6,7,8-tetrahydr onaphthalene-2-carbonitrile]: 500 to 1000 nM.
The result for `ClCCOc1c(Cl)cc2c(c1Cl)CCCC2c1ccc2cn[nH]c2c1` (stereo not shown) [HANT-134] reads 1 to 500 nM; that for `N#Cc1cc2c(c(Cl)c1OCCCl)CCCC2Nc1cnc2[nH]ncc2c1` (racemic) [HANT-192, 8-((1H-pyrazolo[3,4-b]pyridin-5-yl)amino)-4-chloro-3-(2-chloroethoxy)-5,6,7,8-tetrahydronaph thalene-2-carbonitrile], 1 to 500 nM; that for `N#Cc1cc2c(c(Cl)c1OCCCl)CCCC2Nc1cc2cn[nH]c2cn1` (stereo not shown) [HANT-224], 1 to 500 nM.
Next, `CCCOc1c(C#N)cc2c(c1Cl)CCCC2Nc1ccc2[nH]ncc2c1` (stereo not shown) [HANT-268, 8-((1H-indazol-5-yl)amino)-4-chloro-3-propoxy-5,6,7,8-tetrahydronaphthalene-2-carbonitrile]: 1 to 500 nM; `N#Cc1cc2c(c(Cl)c1OCCCl)CCCC2Nc1cccnc1` (stereo not shown) [HANT-227]: 1 to 500 nM; `ClCCOc1c(Cl)cc2c(c1Cl)CCC[C@H]2c1ccc2[nH]ncc2c1` [HANT-118]: 1 to 500 nM.
Turning to `ClCCOc1c(Cl)cc2c(c1Cl)CCCN2c1cnc2[nH]ncc2c1` [HANT-166, 5,7-dichloro-6-(2-chloroethoxy)-1-(1H-pyrazolo[3,4-b]pyridin-5-yl)-1,2,3,4-tetrahydroquinoline], the IC50 is 500 to 1000 nM.
The result for `ClCCOc1c(Cl)cc2c(c1Cl)CCCC2c1ccc2[nH]nnc2c1` (stereo not shown) [HANT-113, 5-(5,7-dichloro-6-(2-chloroethoxy)-1,2,3,4-tetrahydronaphthalen-1-yl)-1H-benzo[d][1,2,3]triaz ole] reads 500 to 1000 nM; that for `N#Cc1cc2c(c(Cl)c1OCCCl)CCCC2Nc1cn[nH]c1` (stereo not shown) [HANT-239, 8-((1H-pyrazol-4-yl)amino)-4-chloro-3-(2-chloroethoxy)-5,6,7,8-tetrahydronaphthalene-2-carb onitrile], 500 to 1000 nM.
The result for `N#Cc1cc2c(c(Cl)c1OCCCl)CCCC2Nc1ccc(N)nc1` (stereo not shown) [HANT-240, 8-((6-aminopyridin-3-yl)amino)-4-chloro-3-(2-chloroethoxy)-5,6,7,8-tetrahydronaphthalene-2-c arbonitrile] reads 500 to 1000 nM; that for `N#Cc1ccc(NC2CCCc3c2cc(C#N)c(OCCCl)c3Cl)cn1` (stereo not shown) [HANT-262], 1 to 500 nM; that for `N#Cc1cc2c(c(Cl)c1OCCCl)CCCC2NC(=O)c1ccc2[nH]ncc2c1` (stereo not shown) [HANT-186], 1 to 500 nM.
The result for `CN1CCc2c(cc(Cl)c(OCCCl)c2Cl)C1c1ccc2[nH]ncc2c1` (racemic) [HANT-146, 5,7-dichloro-6-(2-chloroethoxy)-1-(1H-indazol-5-yl)-2-methyl-1,2,3,4-tetrahydroisoquinoline] reads 1 to 500 nM; that for `N#Cc1cc2c(c(Cl)c1OCCCl)CCCC2Nc1ccc2cn[nH]c2c1` (stereo not shown) [HANT-229, 8-((1H-indazol-6-yl)amino)-4-chloro-3-(2-chloroethoxy)-5,6,7,8-tetrahydronaphthalene-2-carb onitrile], 1 to 500 nM.
With `Oc1ccc(C2CCc3cc(OCCCl)c(Cl)cc32)cc1` (stereo not shown) [HANT-107, 4-(6-chloro-5-(2-chloroethoxy)-2,3-dihydro-1H-inden-1-yl)phenol], the IC50 fell in the range of 1000 to 2000 nM.
The result for `ClCCOc1c(Cl)cc2c(c1Cl)CCCC2c1ccc2[nH]ncc2c1` (stereo not shown) [HANT-100, 5-(5,7-dichloro-6-(2-chloroethoxy)-1,2,3,4-tetrahydronaphthalen-1-yl)-1H-indazole] reads 1 to 500 nM; that for `N#Cc1cc2c(c(Cl)c1OCCCl)CCCC2Nc1cccc2[nH]ncc12` (stereo not shown) [HANT-173], 1 to 500 nM; that for `N#Cc1cc2c(c(Cl)c1OCCCl)CCCC2NC(=O)C1CCCCC1` (stereo not shown) [HANT-209], 500 to 1000 nM.
Next, `N#Cc1cc2c(c(Cl)c1OCCCl)CCCC2c1cccc2[nH]ncc12` (stereo not shown) [HANT-193, 4-chloro-3-(2-chloroethoxy)-8-(1H-indazol-7-yl)-5,6,7,8-tetrahydronaphthalene-2-cyanide]: 1 to 500 nM.
